Patent publication US11510933B2, “Use of Pulsatilla chinensis extract in the preparation of drugs for treatment of viral and/or bacterial diseases” (priority 2018, dated 2022)

Experiments:
[1] = test system: cow foot rot disease; assay: treatment of cow foot rot disease; assay type: in vivo, cows; conditions: for Milk production (daily yield) / Total number of cured cows: n = 10
[2] = test system: canine parvovirus; assay: treatment of canine parvovirus; assay type: in vivo, dogs; parameters: White blood cell count: unit not given here; conditions: 14 days, n = 10
Protocol: (§1) Anemoside B4 injection prepared in example 3, with a concentration of 50 mg/mL.
Dogs suffering from canine parvovirus are cases received by various pet hospitals in Chengdu.
In the early, dogs have high temperature and vomit violently. The vomit changes from white to yellow, and finally to green, with a small amount of blood streak; eyes' conjunctival congestion and tears; liking drinking water and vomiting after drinking; fecal jets are like tomato sauce, smelly and unpleasant; preferring to lie down; the number of white blood cells dropped sharply, together with severe dehydration, heart failure, and shock to death.
(§2) Anemoside B4 injection was intravenously injected, 2 mL/time in low-dose group, 4 mL/time in medium-dose group, 8 mL/time in high-dose group, once a day; anemoside B4 injection was intramuscularly injected, 1 mL/time in low-dose group, 2 mL/time in the middle-dose group, 4 mL/time in the high-dose group, twice a day; the treatment was kept for 14 days.

[3] = test system: feline parvovirus; assay: treatment of feline parvovirus; assay type: in vivo, cats; parameters: White blood cell count: unit not given here; conditions: 14 days, n = 10
Protocol: as §1
Cats suffering from feline parvovirus are cases received by various pet hospitals in Chengdu.
Cats occasionally having fever, severe vomiting, and diarrhea; the stool changing from gray to yellow and finally to milky white, accompanied by jelly-like mucus; stools liking tomato sauce, smelly and unpleasant; having a lying prone; the number of white blood cells dropping sharply, cold limbs, highly depressed spirit, then shock to death.
as §2

[4] = test system: canine distemper; assay: treatment of canine distemper; assay type: in vivo, dogs; conditions: for Cure / Death: 14 days, 10 dogs treated
Protocol: as §1
Dogs suffering from canine distemper are cases received by various pet hospitals in Chengdu.
According to the clinical symptoms, canine distemper can be divided into early, middle and late stages.
The vomit is mucus or yellow liquid, while the stool is dark brown or covered with mucus. As the progress of the disease course, dogs with canine distemper often develop secondary bacterial infections due to their decreased resistance.
as §2

[5] = test system: canine renal failure; assay: treatment of canine renal failure; assay type: in vivo, dogs; conditions: 14 days, n = 10
[6] = high-dose, intravenous injection 60 mL (50 mg/mL), once a day, 4 days
[7] = high-dose, pulvis 1.5 g, external application, once every other day, 4 times
[8] = high-dose, subcutaneous injection 15 mL (50 mg/mL) in affected limbs, once a day, 4 days
[9] = low-dose, intravenous injection 20 mL (50 mg/mL), once a day, 4 days
[10] = low-dose, pulvis 0.5 g, external application, once every other day, 4 times
[11] = low-dose, subcutaneous injection 5 mL (50 mg/mL) in affected limbs, once a day, 4 days
[12] = medium-dose, intravenous injection 40 mL (50 mg/mL), once a day, 4 days
[13] = medium-dose, pulvis 1.0 g, external application, once every other day, 4 times
[14] = medium-dose, subcutaneous injection 10 mL (50 mg/mL) in affected limbs, once a day, 4 days
[15] = high-dose, intramuscular injection 4 mL/time (50 mg/mL), twice a day
[16] = high-dose, intravenous injection 8 mL/time (50 mg/mL), once a day
[17] = low-dose, intramuscular injection 1 mL/time (50 mg/mL), twice a day
[18] = low-dose, intravenous injection 2 mL/time (50 mg/mL), once a day
[19] = medium-dose, intramuscular injection 2 mL/time (50 mg/mL), twice a day
[20] = medium-dose, intravenous injection 4 mL/time (50 mg/mL), once a day

With `C=C(C)[C@@H]1CC[C@]2(C(=O)O[C@@H]3O[C@H](CO[C@@H]4O[C@H](CO)[C@@H](O[C@@H]5O[C@@H](C)[C@H](O)[C@@H](O)[C@H]5O)[C@H](O)[C@H]4O)[C@@H](O)[C@H](O)[C@H]3O)CC[C@]3(C)[C@H](CC[C@@H]4[C@@]5(C)CC[C@H](O[C@@H]6OC[C@H](O)[C@H](O)[C@H]6O[C@@H]6O[C@@H](C)[C@H](O)[C@@H](O)[C@H]6O)[C@@](C)(CO)[C@@H]5CC[C@]43C)[C@H]12` [anemoside B4] the cure rate ([1]; high-dose subcutaneous injection group, middle- and high-dose pulvis groups) was “above 80%”, the “Milk production (daily yield)” value [1, 6] was 22.2 ± 1.5 kg/cow and the “Total number of cured cows” value [1, 6] was 6. For the same molecule, the “Milk production (daily yield)” value [1, 7] was 25.9 ± 2.4 kg/cow, the “Total number of cured cows” value [1, 7] was 9 and the “Milk production (daily yield)” value [1, 8] was 25.6 ± 2.8 kg/cow. For the same molecule, the “Total number of cured cows” value [1, 8] was 8, the “Milk production (daily yield)” value [1, 9] was 18.2 ± 1.4 kg/cow and the “Total number of cured cows” value [1, 9] was 4. The “Milk production (daily yield)” value [1, 10] was 22.6 ± 2.5 kg/cow, the “Total number of cured cows” value [1, 10] was 6 and the “Milk production (daily yield)” value [1, 11] was 20.4 ± 1.9 kg/cow. For the same molecule, the “Total number of cured cows” value [1, 11] was 5, the “Milk production (daily yield)” value [1, 12] was 20.8 ± 2.2 kg/cow and the “Total number of cured cows” value [1, 12] was 5. For the same molecule, the “Milk production (daily yield)” value [1, 13] was 24.2 ± 1.7 kg/cow, the “Total number of cured cows” value [1, 13] was 8 and the “Milk production (daily yield)” value [1, 14] was 22.1 ± 1.6 kg/cow. For the same molecule, the “Total number of cured cows” value [1, 14] was 7, the Body temperature [2, 15] was 37.8 ± 0.4 °C and the Mortality rate [2, 15] was 50%. For the same molecule, the “White blood cell count” value [2, 15] was 6.2 ± 0.5 ×10^9, the Body temperature [2, 16] was 37.4 ± 0.2 °C and the Mortality rate [2, 16] was 30%. For the same molecule, the “White blood cell count” value [2, 16] was 8.2 ± 0.7 ×10^9, the Body temperature [2, 17] was 39.2 ± 0.5 °C and the Mortality rate [2, 17] was 80%. For the same molecule, the “White blood cell count” value [2, 17] was 3.3 ± 0.3 ×10^9, the Body temperature [2, 18] was 38.2 ± 0.5 °C and the Mortality rate [2, 18] was 50%. The “White blood cell count” value [2, 18] was 6.3 ± 0.4 ×10^9, the Body temperature [2, 19] was 38.4 ± 0.3 °C and the Mortality rate [2, 19] was 60%. For the same molecule, the “White blood cell count” value [2, 19] was 4.6 ± 0.8 ×10^9, the Body temperature [2, 20] was 37.6 ± 0.3 °C and the Mortality rate [2, 20] was 40%. The “White blood cell count” value [2, 20] was 7.6 ±0.6 ×10^9, the Mortality rate [3, 15] was 50% and the “White blood cell count” value [3, 15] was 9.1 ± 0.5 ×10^9. For the same molecule, the Mortality rate [3, 16] was 40%, the “White blood cell count” value [3, 16] was 9.3 ± 0.9 ×10^9 and the Mortality rate [3, 17] was 90%. For the same molecule, the “White blood cell count” value [3, 17] was 4.7 ± 0.3 ×10^9, the Mortality rate [3, 18] was 80% and the “White blood cell count” value [3, 18] was 7.7 ± 0.4 ×10^9. The Mortality rate [3, 19] was 70%, the “White blood cell count” value [3, 19] was 7.8 ± 0.6 ×10^9 and the Mortality rate [3, 20] was 60%. For the same molecule, the “White blood cell count” value [3, 20] was 8.8 ± 0.7 ×10^9, the “therapeutic effect on canine distemper (conclusion in words)” value ([4]; dogs) was “a better therapeutic effect on canine distemper” and the Cure [4, 15] was 5 dog. For the same molecule, the Death [4, 15] was 5 dog, the Cure [4, 16] was 6 dog and the Death [4, 16] was 4 dog. It also gave a Cure [4, 17] of 3 dog, a Death [4, 17] of 7 dog and a Cure [4, 18] of 4 dog. The Death [4, 18] was 6 dog, the Cure [4, 19] was 4 dog and the Death [4, 19] was 6 dog. For the same molecule, the Cure [4, 20] was 5 dog, the Death [4, 20] was 5 dog and the Body temperature [5, 15] was 38.5 ± 0.2 °C. For the same molecule, the Creatinine [5, 15] was 100 ± 30 µmol/L, the Inorganic phosphous [5, 15] was 1.4 ± 0.08 mmol/L and the Mortality rate [5, 15] was 40%. The Urea [5, 15] was 14.2 ± 0.4 mmol/L, the Body temperature [5, 16] was 38.6 ± 0.4 °C and the Creatinine [5, 16] was 109 ± 20 µmol/L. For the same molecule, the Inorganic phosphous [5, 16] was 0.9 ± 0.06 mmol/L, the Mortality rate [5, 16] was 20% and the Urea [5, 16] was 8.7 ± 0.3 mmol/L. For the same molecule, the Body temperature [5, 17] was 37.8 ± 0.3 °C, the Creatinine [5, 17] was 130 ± 19 µmol/L and the Inorganic phosphous [5, 17] was 1.6 ± 0.02 mmol/L. The Mortality rate [5, 17] was 60%, the Urea [5, 17] was 20.8 ± 0.5 mmol/L and the Body temperature [5, 18] was 38.3 ± 0.5 °C. For the same molecule, the Creatinine [5, 18] was 117 ± 25 µmol/L, the Inorganic phosphous [5, 18] was 1.1 ± 0.05 mmol/L and the Mortality rate [5, 18] was 40%. For the same molecule, the Urea [5, 18] was 11.8 ± 0.6 mmol/L, the Body temperature [5, 19] was 38.2 ± 0.4 °C and the Creatinine [5, 19] was 120 ± 26 µmol/L. It also gave an Inorganic phosphous [5, 19] of 2.0 ± 0.03 mmol/L, a Mortality rate [5, 19] of 50% and a Urea [5, 19] of 17.5 ± 0.7 mmol/L. It also gave a Body temperature [5, 20] of 38.5 ± 0.3 °C, a Creatinine [5, 20] of 115 ± 12 µmol/L and an Inorganic phosphous [5, 20] of 1.5 ± 0.04 mmol/L. For the same molecule, the Mortality rate [5, 20] was 30% and the Urea [5, 20] was 9.9 ± 0.8 mmol/L.
